PubChem BioAssay (NCI)
Where “and” joins values, the source holds several entries; their conditions need not be identical. Equal entries are not always repeated.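 Cells were grown in 96-well plates and exposed to each compound for 48 hours at five concentrations; endpoints were interpolated linearly between bracketing concentrations, or set to the highest concentration if not reached. GI50 is the concentration that inhibits growth by half. Definition used: TGI = concentration required for complete inhibition of growth.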

Assays:
Test in all cases: inhibition of tumour cell growth, NCI panel, 48 h
[1] = tested on: IGROV1 ovarian
[2] = tested on: LOX IMVI melanoma
[3] = tested on: UACC-257 melanoma
[4] = tested on: OVCAR-5 ovarian
[5] = tested on: MALME-3M melanoma
[6] = tested on: OVCAR-8 ovarian
[7] = tested on: HOP-62 NSCLC
[8] = tested on: EKVX NSCLC
[9] = tested on: HT29 colon
[10] = tested on: BT-549 breast

With `COc1ccc(C2=NN(C=O)C(c3cccc(Nc4ccnc5cc(Cl)ccc45)c3)C2)cc1` (stereo not drawn) the GI50 [1] was 3.71 µM, the TGI [1] was > 100 µM and the GI50 [2] was 2.52 µM. It also gave a TGI [2] of 12.5 µM, a GI50 [3] of 3.06 µM and a TGI [3] of 28.5 µM. The GI50 [4] was 11.3 µM, the TGI [4] was > 100 µM and the GI50 [5] was 2040 nM. It also gave a TGI [5] of 18.9 µM, a GI50 [6] of 3.29 µM and a TGI [6] of 27.6 µM. The GI50 [7] was 2.11 µM, the TGI [7] was 16.6 µM and the GI50 [8] was 2.8 µM. The TGI [8] was > 100 µM, the GI50 [9] was 1.65 µM and the TGI [9] was 9.7 µM. The GI50 [10] was 1930 nM and the TGI [10] was 9.87 µM.

For `CCCOc1ccc2nc(NC(=O)OC)[nH]c2c1`, the GI50 [1] was 0.481 µM, the TGI [1] was > 100 µM and the GI50 [2] was 0.778 µM. The TGI [2] was > 100 µM, the GI50 [3] was > 100 µM and the TGI [3] was > 100 µM. For the same molecule, the GI50 [4] was 0.441 µM, the TGI [4] was > 100 µM and the GI50 [5] was 2720 nM. The TGI [5] was > 100 µM, the GI50 [6] was 0.485 µM and the TGI [6] was > 100 µM. For the same molecule, the GI50 [7] was 0.417 µM, the TGI [7] was > 78.8 µM and the GI50 [8] was 0.535 µM. For the same molecule, the TGI [8] was > 100 µM, the GI50 [9] was 0.174 µM and the TGI [9] was > 100 µM. For the same molecule, the GI50 [10] was 1060 nM and the TGI [10] was > 100 µM.

Molecule `Cn1c2c(c3ccc(Cl)c(Cl)c31)C(C#N)C1(CCNCC1)NC2=O` (stereo not drawn) has a GI50 [1] of 1.66 µM, a TGI [1] of 3.83 µM and a GI50 [2] of 1.54 µM. It also gave a TGI [2] of 3.39 µM, a GI50 [3] of 1.75 µM and a TGI [3] of 3.69 µM. It also gave a GI50 [4] of 1.49 µM, a TGI [4] of 4.68 µM and a GI50 [5] of 1420 nM. For the same molecule, the TGI [5] was 3.19 µM, the GI50 [6] was 2.83 µM and the TGI [6] was 8.85 µM. The GI50 [7] was 1.47 µM, the TGI [7] was 3.93 µM and the GI50 [8] was 2.47 µM. It also gave a TGI [8] of 9.84 µM, a GI50 [9] of 2.02 µM and a GI50 [10] of 3040 nM. For the same molecule, the TGI [10] was 16.7 µM.

Work on `Cc1cc(Cl)ccc1Nc1nc(C(F)(F)F)ccc1C(=O)N/N=C/c1ccc([N+](=O)[O-])cc1` yielded a GI50 [1] of 2.21 µM, a TGI [1] of 12.9 µM and a GI50 [2] of 1.16 µM. It also gave a GI50 [3] of 1.38 µM, a TGI [3] of 5.11 µM and a GI50 [4] of 2.99 µM. The TGI [4] was > 100 µM, the GI50 [5] was 1680 nM and the TGI [5] was 7.09 µM. For the same molecule, the GI50 [6] was 1.15 µM, the GI50 [7] was 3.35 µM and the TGI [7] was > 35.7 µM. For the same molecule, the GI50 [8] was 2.37 µM, the TGI [8] was > 29.7 µM and the GI50 [9] was 3.11 µM. The TGI [9] was > 37.5 µM, the GI50 [10] was 1500 nM and the TGI [10] was 4.96 µM.

In the case of `COc1ccc(Cn2c3c(cc(OS(=O)(=O)C(F)(F)F)c2=O)Cc2ccccc2-3)cc1`, the GI50 [1] is reported as 7.26 µM, the TGI [1] is reported as 50 µM and > 100 µM and the GI50 [2] is reported as 6.82 µM. The TGI [2] was 50 µM and > 100 µM, the GI50 [3] was 5.14 µM and the TGI [3] was 50 µM and > 100 µM. For the same molecule, the GI50 [4] was > 100 µM, the TGI [4] was 50 µM and > 100 µM and the GI50 [5] was 20700 nM. The TGI [5] was 50 µM and > 100 µM, the GI50 [6] was 9.07 µM and the TGI [6] was 50 µM and > 100 µM. The TGI [7] was 50 µM, the GI50 [8] was 3.36 µM and the TGI [8] was 50 µM and > 100 µM. The GI50 [9] was 79 µM, the TGI [9] was > 100 µM and the GI50 [10] was 19900 nM. For the same molecule, the TGI [10] was 50 µM and > 100 µM.

With `CCC[n+]1cc2cc(OC)c(OC)cc2c2c1-c1cc3c(cc1C2)OCO3` the GI50 [1] was 2.27 µM, the TGI [1] was 12.6 µM and the GI50 [2] was 8.25 µM. The TGI [2] was > 62.2 µM, the GI50 [3] was 1.19 µM and the TGI [3] was 3.87 µM. The GI50 [4] was 32.9 µM, the TGI [4] was 67.8 µM and the GI50 [5] was 1650 nM. It also gave a TGI [5] of 4.01 µM, a GI50 [6] of 2.18 µM and a TGI [6] of 6.23 µM. The GI50 [7] was 3.92 µM, the TGI [7] was 19.7 µM and the GI50 [8] was 11.9 µM. For the same molecule, the TGI [8] was 48 µM, the GI50 [9] was 5.03 µM and the TGI [9] was > 34.6 µM. For the same molecule, the GI50 [10] was 658 nM and the TGI [10] was 10.6 µM.

`Cc1cc(S(=O)(=O)NC#N)c(S/C(=N\Nc2ccc([N+](=O)[O-])cc2)c2ccc(Cl)cc2)cc1Cl` was tested, and the GI50 [1] was > 100 µM, the TGI [1] was > 100 µM and the GI50 [2] was 30.1 µM. For the same molecule, the TGI [2] was > 100 µM, the GI50 [3] was > 100 µM and the TGI [3] was > 100 µM. The GI50 [4] was 44 µM, the TGI [4] was > 100 µM and the GI50 [5] was 24400 nM. The TGI [5] was 96.3 µM, the GI50 [6] was 31.7 µM and the TGI [6] was > 100 µM. For the same molecule, the GI50 [7] was 41.6 µM, the TGI [7] was > 100 µM and the GI50 [8] was 20.2 µM. For the same molecule, the TGI [8] was 70.2 µM, the GI50 [10] was 20300 nM and the TGI [10] was 73.4 µM.

With `C/C=C1\NC(=O)[C@H]2CSSCCC=C[C@H](CC(=O)N[C@H](C(C)C)C(=O)N2)OC(=O)[C@H](C(C)C)NC1=O` the GI50 [1] was < 0.01 µM and 0.000421 µM, the GI50 [2] was < 0.01 µM and 0.000122 µM and the TGI [2] was < 0.01 µM and 0.00104 µM. The GI50 [3] was < 0.01 µM and 0.000137 µM, the GI50 [4] was < 0.01 µM and 0.000261 µM and the GI50 [5] was < 10 nM and 0.0209 nM. For the same molecule, the GI50 [6] was < 0.01 µM, the TGI [6] was 0.0668 µM and 0.072 µM and 0.154 µM and the GI50 [7] was < 0.01 µM. The GI50 [8] was < 0.01 µM, the GI50 [9] was < 0.01 µM and the TGI [9] was < 0.01 µM and 0.0116 µM and 0.0262 µM. For the same molecule, the GI50 [10] was < 10 nM and 0.0646 nM and < 11.1 nM.

With `Fc1cc2[nH]ncc2c2c3c(c(-c4cn[nH]c4C(F)(F)F)nc12)C1CCC3C1` (stereo not drawn) the GI50 [1] was 0.994 µM, the TGI [1] was 3.77 µM and the GI50 [2] was 0.818 µM. It also gave a TGI [2] of 3.33 µM, a GI50 [3] of 1.31 µM and a TGI [3] of 4.51 µM. It also gave a GI50 [4] of 1.19 µM, a TGI [4] of 3.72 µM and a GI50 [5] of 1450 nM. For the same molecule, the TGI [5] was 4.85 µM, the GI50 [6] was 1.21 µM and the TGI [6] was 6.74 µM. The GI50 [7] was 0.97 µM, the TGI [7] was 3.75 µM and the GI50 [8] was 1.39 µM. The TGI [8] was 5.91 µM, the GI50 [9] was 1.47 µM and the TGI [9] was 10.5 µM. It also gave a GI50 [10] of 883 nM and a TGI [10] of 2.97 µM.

Work on `COc1cc2c(=O)n(CCN)c3c4cc5c(cc4ccc3c2cc1OC)OCO5` yielded a GI50 [1] of 0.467 µM, a TGI [1] of 2.07 µM and a GI50 [2] of 0.362 µM. The TGI [2] was 1.78 µM, the GI50 [3] was 1.92 µM and the TGI [3] was 13.3 µM. For the same molecule, the GI50 [4] was 1.16 µM, the TGI [4] was 2.59 µM and the GI50 [5] was 692 nM. It also gave a TGI [5] of 2.2 µM, a GI50 [6] of 0.988 µM and a TGI [6] of 3.91 µM. The GI50 [7] was 0.444 µM, the TGI [7] was 2.27 µM and the GI50 [8] was 1.47 µM. It also gave a TGI [8] of 3.51 µM, a GI50 [9] of 0.222 µM and a TGI [9] of 1.65 µM. It also gave a GI50 [10] of 1060 nM and a TGI [10] of 2.7 µM.

For `CCN(CC)C(=S)Oc1cc2oc(=O)cc(C)c2cc1Cl`, the TGI [1] was > 100 µM, the TGI [2] was > 100 µM and the TGI [3] was > 100 µM. The TGI [4] was > 100 µM, the TGI [6] was > 100 µM and the TGI [7] was > 100 µM. The TGI [8] was > 100 µM, the TGI [9] was > 100 µM and the TGI [10] was > 100 µM.

In the case of `COc1cc(C(=O)Nc2cc3c(cc2Oc2cc(C)cc(C)c2)C(=O)N(C)[C@@H](CC(=O)N(C)O)C(=O)N3)c(Br)c(OC)c1OC`, the GI50 [1] is reported as < 0.00333 µM, the TGI [1] is reported as 0.0104 µM and the GI50 [2] is reported as < 0.00333 µM. For the same molecule, the TGI [2] was < 0.00333 µM, the GI50 [3] was < 0.00333 µM and the TGI [3] was 0.00475 µM. For the same molecule, the GI50 [4] was < 0.00333 µM, the TGI [4] was 0.00751 µM and the GI50 [5] was < 3.33 nM. The TGI [5] was < 0.00333 µM, the GI50 [6] was < 0.00333 µM and the TGI [6] was 0.0181 µM. For the same molecule, the GI50 [7] was < 0.00333 µM, the TGI [7] was 0.00372 µM and the GI50 [8] was < 0.00333 µM. The TGI [8] was 0.0201 µM, the GI50 [9] was < 0.00333 µM and the TGI [9] was < 0.00333 µM. The GI50 [10] was < 3.33 nM and the TGI [10] was < 0.00333 µM.

Work on `OCCNc1ncnc2c1ncn2Cc1cccc(COc2cccc(OCc3cccc(Cn4cnc5c(NCCO)ncnc54)c3)c2)c1` yielded a GI50 [1] of 12.9 µM, a TGI [1] of 37.4 µM and a GI50 [2] of 14.5 µM. It also gave a TGI [2] of 30.1 µM, a GI50 [3] of 18.4 µM and a TGI [3] of 36.1 µM. It also gave a GI50 [4] of 20.2 µM, a TGI [4] of 36.8 µM and a GI50 [5] of 17200 nM. The TGI [5] was 38.3 µM, the GI50 [6] was 18.5 µM and the TGI [6] was 38.1 µM. For the same molecule, the GI50 [8] was 14.3 µM, the TGI [8] was 29 µM and the GI50 [9] was 4.05 µM. For the same molecule, the TGI [9] was 16.5 µM, the GI50 [10] was 11900 nM and the TGI [10] was 25.9 µM.

In the case of `CC1C(=O)OCC2=CCN3CCC(OC(=O)C(C)C1(C)O)C23` (stereo not drawn), the TGI [1] is reported as > 100 µM, the TGI [2] is reported as > 100 µM and the TGI [3] is reported as > 100 µM. For the same molecule, the TGI [4] was > 100 µM, the TGI [5] was > 100 µM and the TGI [6] was > 100 µM. For the same molecule, the TGI [8] was > 100 µM, the TGI [9] was > 100 µM and the TGI [10] was > 100 µM.
